Patent US11596598B2, “Chlorogenic acid-containing composition for nasal administration” (SICHUAN JIUZHANG BIOLOGICAL SCIENCE AND TECHNOLOGY CO., LTD, priority 2019, dated 2023)

Experiments:
[1] = tested on: nasopharyngeal carcinoma; assay: Inhibitory effect on nasopharyngeal carcinoma in rats: nasopharyngeal tissue paraffin microscopy; format: in vivo, SD rats; settings: nasal administration, 20 mg/kg chlorogenic acid once a day, 5 rats per group, dinitrosopiperazine/phorbol ester induced, 20th week
Text: 1.1.3 Positive Control Drug: Retinoic Acid
SD rats, half male and half […], weighing 180-220 g.
(§1) SD rats were randomly divided into 8 groups, 5 rats for each group, and the groups included nasal administration groups: chlorogenic acid bulk drug group, the nasal powder group of example 1, the nasal powder group of example 5, the aerosol group of example 6, and the aerosol group of example 7; intraperitoneal injection group of chlorogenic acid, positive control drug group, and blank group. Amongst, for nasal administration, each test drug group received corresponding drugs at a dose of 20 mg/kg chlorogenic acid daily, once a day; intraperitoneal injection group of chlorogenic acid was administrated at a dose of 20 mg/kg chlorogenic acid daily, once a day; retinoic acid positive drug group was administered intragastrically at a dose of 90 mg/kg daily, once a day. Rats in each experimental group were given dinitrosopiperazine and phorbol ester to promote cancer. Dinitrosopiperazine was injected into the armpit at a dose of 40 mg/kg to induce carcinogenesis, twice a week, for a total of 15 weeks. After dinitrosopiperazine was injected for two weeks, phorbol diester was injected at a dose of 50 ng/rat, twice a week, for a total of 15 weeks. The rats were sacrificed at the 20th week, rhinitis tissues were dissected, histopathology was observed, and telomerase was detected.
Rat nasopharyngeal tissues were fixed with 10% formaldehyde, decalcified in Jenkin's solution, further fixed in neutral formalin, and embedded in paraffin to make serial sections, then stained with hematoxylin and eosin and observed under a microscope.

[2] = Bioavailability of nasal administration in beagle dogs (chlorogenic acid content in blood); format: in vivo; settings: male, dog, serum, other: nasal administration, 4 mg/kg chlorogenic acid
Method: • Six male beagle dogs, weighing 10-13 kg.
Six beagle dogs were randomly divided into groups and cross-administered with one week interval.
After fasting for 12 h, test animals were given chlorogenic acid, nasal powder, and aerosol at a dose of 4 mg/kg chlorogenic acid by nasal administration, and one additional dog was injected intravenously with chlorogenic acid at 4 mg/kg. 3 h after administration, dogs were allowed to feed;
10 min, 30 min, 60 min, 90 min, 120 min, 150 min after administration of beagle dogs, 3 mL intravenous blood was collected, heparin was used to anticoagulate, and then 1 mL serum was separated by centrifugation, and stored in a refrigerator at −20° C.
To 100 μL serum, were added methanol-0.2% phosphoric acid (80:20) solution (100 μL), the solution of puerarin in methanol as internal standard (50 mg/mL, 100 μL), and 100 μL methanol. The resultant solution was vortexed for 3 min, allowed to stand, and centrifuged (12000 rpm) for 10 min. The supernatant was collected as the serum test solution.
(§2) Octadecylsilane-bonded silica gel column (150 mm×4.6 mm, 5 μm) and guard column were used; mobile phase A (methanol) and mobile phase B (0.2% phosphoric acid) were used to perform desorption according to a gradient elution procedure; the detection wavelength was 325 nm; the flow rate was 1 mL/min; the column temperature was 40° C.
20 μL of the serum test solution was accurately measured, and injected into the liquid chromatograph, to record the chromatogram. The internal standard method was used to calculate the content of chlorogenic acid in serum with accompanying standard curve.

[3] = Blood-brain barrier permeability in rats after nasal administration (chlorogenic acid content in brain tissue); format: in vivo; settings: SD, rat, other: nasal administration, 20 mg/kg chlorogenic acid
Method: 150 SD rats, half male and half […], weighing 180-220 g.
SD rats were randomly divided into 5 groups, 30 rats for each group, and each test drug was administrated nasally at a dose of 20 mg/kg chlorogenic acid. The tissue samples were collected at 10 min, 30 min, 60 min, 90 min, 120 min, and 150 min after administration.
After administration, each experimental group was intraperitoneally injected with 1% pentobarbital sodium (0.2 mL) for deep anesthesia according to the time point, and then a needle was inserted from the left ventricle. The right ventricle was cut, and physiological saline was injected with a syringe for cardiac perfusion until the liver and spleen turned gray, and the brain tissue was taken out.
The brain tissue was placed in a homogenizer, to which was added 0.9% sodium chloride injection according to brain tissue: normal saline=1:1 (w/v) and then homogenized. To 200 μL homogenate, were added 50 mg/mL puerarin internal standard solution (200 μL) and methanol (200 μL), and then the mixture was vortexed and centrifuged. The supernatant was collected as the brain tissue test solution.
as §2
20 μL of the brain tissue test solution was accurately measured, and injected into the liquid chromatograph, to record the chromatogram. The internal standard method was used to calculate the content of chlorogenic acid in […] with accompanying standard curve.

[4] = tested on: Rat C6 glioma cells; assay: Inhibitory effect of nasal administration and intraperitoneal injection on glioma in rats; format: in vivo, SD rats; settings: rat C6 brain glioma; for Tumor size: imaging on 21st day
Method: 1.1.3 Positive Control Drug: Temozolomide
40 SD rats, half male and half […], weighing 180-220 g.
Rat C6 glioma cells were incubated in 10% calf serum DMEM complete culture medium, subcultured in a monolayer culture method and allowed to grow to the required number of cells, and then subcultured once before inoculation. Cells in logarithmic growth phase are collected, digested with trypsin, centrifuged, and made to 1×10^4/10 μL cell suspension with Hanks solution, then stored in a refrigerator at 4° C. for inoculation.
Rats were anesthetized by intraperitoneal injection of 10% chloral hydrate, and the hair on the top of the rat's head was cut off and disinfected with iodine. The scalp was cut to expose the skull, and an electronic dental drill was used to open the cranium 1 mm behind the coronal suture and 3 mm to the right of the sagittal suture. 10 μL C6 cell suspension was injected, the bone hole was sealed with bone wax, and the incision was sutured. 5 days after tumor inoculation, the rats were examined by imaging, and tumorigenic rats were selected.
The tumorigenic rats were randomly divided into 8 groups, 5 rats for each group, and the groups included nasal administration groups: chlorogenic acid bulk drug group, the nasal powder group of example 1, the nasal powder group of example 5, the aerosol group of example 6, and the aerosol group of example 7; intraperitoneal injection group of chlorogenic acid, temozolomide positive control drug group, and blank group. For nasal administration, each test drug group received corresponding drugs at a dose of 20 mg/kg chlorogenic acid daily; intraperitoneal injection group of chlorogenic acid was administrated at a dose of 20 mg/kg chlorogenic acid daily; temozolomide positive control group was administered intragastrically at a dose of 25 mg/kg daily. Each test group started to be given the drug on the 6th day after tumor inoculation for 20 consecutive days, and on the 21st day each drug group and the blank group were imaged to check the tumor size.
SPSS software was used to perform t test, analysis of variance and multiple comparisons test.
The post-processing platform was used to measure the tumor volume on the 3DFSPGR sequence, and the tumor inhibition rate was calculated.

[5] = tested on: telomerase; assay: Telomerase detection in nasopharyngeal tissue of rats; format: in vivo, SD rats; settings: rat nasopharyngeal tissue homogenate, Telomerase ELISA-PCR kit, 20th week
Method: as §1, with “Dinitrosopiperazine was injected into the armpit at a dose of 40 mg/kg to induce carcinogenesis, twice a week, for a total of 15 weeks. After dinitrosopiperazine was injected for two weeks, phorbol diester was injected at a dose of 50 ng/rat, twice a week, for a total of 15 weeks.” left out
Nasopharyngeal tissue homogenate was weighed and centrifuged, and then the supernatant was collected and processed according to Telomerase ELISA-PCR kit instruction (Shanghai Boehringer Mannheim Co.). After obtaining PCR reaction product, the telomerase activity was quantitatively detected, followed by concentration and electrophoresis on polyacrylamide gel, then staining with silver nitrate.

[6] = listed as chlorogenic acid raw material
[7] = 10 min after nasal administration
[8] = 30 min after nasal administration
[9] = 60 min after nasal administration
[10] = 90 min after nasal administration
[11] = 120 min after nasal administration
[12] = 150 min after nasal administration
[13] = nasal administration, 20 mg/kg chlorogenic acid daily for 20 days
[14] = intraperitoneal injection, 25 mg/kg daily for 20 days

Q: For `O=C(/C=C/c1ccc(O)c(O)c1)O[C@@H]1C[C@](O)(C(=O)O)C[C@@H](O)[C@H]1O` [Chlorogenic acid bulk drug, Chlorogenic acid], which “Dysplastic tissue (number of rats, nasopharyngeal tissue paraffin microscopy)” value [1] is on record?
A: The value was 3.

Q: And the “Normal tissue (number of rats, nasopharyngeal tissue paraffin microscopy)” value [1]?
A: The value was 1.

Q: And the “Simple hyperplasia (number of rats, nasopharyngeal tissue paraffin microscopy)” value [1]?
A: The value was 1.

Q: And the “Dysplastic tissue (number of rats, nasopharyngeal tissue paraffin microscopy)” value [1, 6]?
A: The value was “three”.

Q: And the “Simple hyperplasia (number of rats, nasopharyngeal tissue paraffin microscopy)” value [1, 6]?
A: The value was “one”.

Q: And the concentration at 10 min [2, 7]?
A: The concentration at 10 min was 1020 ng/mL.

Q: And the concentration at 30 min [2, 8]?
A: The concentration at 30 min was 5740 ng/mL.

Q: And the concentration at 60 min [2, 9]?
A: The concentration at 60 min was 2200 ng/mL.

Q: What about the concentration at 90 min [2, 10] of the same molecule?
A: The concentration at 90 min was 980 ng/mL.

Q: What about the concentration at 120 min [2, 11] of the same molecule?
A: Its concentration at 120 min is 520 ng/mL.

Q: And the concentration at 150 min [2, 12]?
A: The concentration at 150 min was 220 ng/mL.

Q: What about the concentration at 10 min [3, 7] of the same molecule?
A: The concentration at 10 min was 0 ng/g.

Q: What about the concentration at 30 min [3, 8] of the same molecule?
A: Its concentration at 30 min is 320 ng/g.

Q: What about the concentration at 60 min [3, 9] of the same molecule?
A: The concentration at 60 min was 860 ng/g.

Q: What about the concentration at 90 min [3, 10] of the same molecule?
A: Its concentration at 90 min is 650 ng/g.

Q: What about the concentration at 120 min [3, 11] of the same molecule?
A: Its concentration at 120 min is 320 ng/g.

Q: What about the concentration at 150 min [3, 12] of the same molecule?
A: Its concentration at 150 min is 130 ng/g.

Q: And the Tumor inhibition rate [4, 13]?
A: Its Tumor inhibition rate is 22.35%.

Q: What about the Tumor size [4, 13] of the same molecule?
A: Its Tumor size is 48.35 ± 4.83 mm3.

Q: And the telomerase activity ([5]; nasal administration, 20 mg/kg chlorogenic acid once a day)?
A: The telomerase activity was 0.56±0.17.

Q: Which telomerase activity ([5]; intragastric administration, 90 mg/kg once a day) does the source give for `CC1=C(/C=C/C(C)=C/C=C/C(C)=C/C(=O)O)C(C)(C)CCC1` [Retinoic acid] here?
A: The telomerase activity was 0.22±0.12.

Q: Which results are given for `Cn1nnc2c(C(N)=O)ncn2c1=O` [Temozolomide]?
A: Tumor inhibition rate [4, 14]: 39.57%; Tumor size [4, 14]: 37.63 ± 3.21 mm3
